According to patent publication US20050009868A1, “Retinoid receptor pan-antagonists for stimulating chondrogenesis” (priority 2001, published 2005):
Where two headings read alike, the source gives them in different places. Values belong to the molecule of their own block, whether it stands above or below them.

Assays:
[1] = tested on: RA response element (pW1-βRARE3-Luc); experiment: Retinoic acid responsive reporter (pW1-βRARE3-Luc) luciferase assay in primary limb mesenchymal cells; assay type: cell-based, mouse; details: for effect on RARE reporter activity (in words): concentration series
Experimental: (§1) Limb mesenchymal cells were harvested from embryonic age 11.25-11.75 mouse embryos as previously described (Weston et al., 2000). The cells were resuspended at a density of about 2.5×10^7 cells/ml prior to transfections, otherwise they were resuspended at 1.5×10^7 cells/ml. For transfection purposes, cells were mixed with a DNA/FuGene6 mixture in a 2:1 ratio. FuGene6-DNA mixtures were prepared according to the manufacturer's instructions (Roche Biomolecular). Briefly, 1 μg of reporter, 1 μg of expression vector and 0.05 μg of pRLSV40 (Promega) were mixed for a total of about 2 μg DNA in 100 μL of media and FuGene6. Fifty microlitres of the DNA mixture was transferred into a sterile 1.5 ml eppendorf tube, followed by 100 μl of cells. Cells were gently triturated and 10 μl was used to seed each single well of a 24-well culture dish. After 1.5 hrs in a humidified CO2 incubator, 1 ml of media containing compounds of interest was added to each well and was subsequently replaced 24 hours following transfection. All-trans RA (at-RA; Sigma), AGN193836 (Teng et al., 1996), AGN194301 (Teng et al., 1997) and AGN194310 (Johnson et al., 1999)(Allergan Inc.) were dissolved in 95% ethanol. SB202190 and SB203580 (Calbiochem) and H89 (Sigma) were dissolved in dimethyl sulfoxide (DMSO) (BDH). 8-(4-chlorophenylthio)-cAMP (pCPT-cAMP, Sigma) was dissolved in water just prior to use.
(§2) Analysis of reporter gene activity using the Dual Luciferase Assay System was done following the manufacturer's instructions (Promega). Briefly, approximately 48 hours following the transfections, cells were washed once with PBS and lysed in 100 μl of Passive Lysis Buffer for 20 minutes. Firefly and renilla luciferase activities were determined using 40 μl of lysate in a 96-well plate-reading luminometer (Molecular Devices). Alcian blue staining of cultures was carried out as described previously (Cash et al., 1997).

[2] = tested on: Sox9 mRNA; experiment: Northern blot of Sox9 mRNA in limb mesenchymal cultures; assay type: cell-based, mouse; details: 1 μM, 2-day cultures
Experimental: Northern blots were carried out using total RNA from limb mesenchymal cultures, as previously described (Weston et al., 2000). Briefly, total RNA was extracted from cells cultured for 2, 4, 6 or 8 days. Cells were treated with media alone or with AGN 194301. Synthesis of the Col2a1 cDNA fragment used was as described previously (Weston et al., 2000). The Sox9 cDNA probe was made using an EST clone, GenBank accession number Al594348 (Research Genetics). The Sox9 fragment was released from pT7T3 using Eco RI and Not I.

[3] = tested on: primary limb mesenchymal cultures; details: earlier work, Weston et al., 2000; cited from earlier work
[4] = tested on: pGL3(4×48) Sox9 reporter; experiment: Sox9 reporter (pGL3(4×48)) luciferase assay in transiently transfected primary limb mesenchymal cultures; assay type: cell-based, mouse; details: for effect on the antagonist-induced increase in Sox9 reporter activity (in words): co-treatment with AGN194301 or AGN194310
From the text: The Sox9 responsive reporter (herein referred to as the Sox9 reporter) was generated by subcloning a fragment containing a reiterated (4×48) Sox9 binding sequence coupled to the mouse Col2a1 minimal promoter (−89 to +6) into pGL3. The fragment containing the 4×48 repeat and minimal promoter was isolated as a BamH I/Hind III fragment from the original 4×48-p89Luc reporter plasmid previously described (Lefebvre et al., 1997), and was subcloned into the BgI II and Hind III sites of pGL3-basic (Promega) to generate pGL3(4×48). The reporter pW1-Col2-Luc was generated from the original p309i(182×2)βgeoCol2a1 (Zhou et al., 1995) by subcloning the regulatory region (consisting of a 309-bp promoter region and two tandem repeats of a 182-bp intron-1 fragment) into pW1 (Balkan et al., 1992) as an EcoR I/BamH I fragment. A BgI II fragment containing the luciferase gene isolated from pJD205 (de Wet et al., 1987) was subcloned into the BamH I site of pW1-Col2 to generate pW1-Col2-Luc. The pcDNA3-hSox9 expression vector was as described (Lefebvre et al., 1997). To generate a mutated form of hSox9, hSox9 was subcloned into pKSII (Stratagene) and serine 181 was replaced with alanine, using the Quick-Change XL system (Stratagene) with the following overlapping primers: 5′-[…]-3′, and 5′-[…]-3′. Following mutagenesis, the Sox9 mutant and wt Sox9 were subcloned into pcDNA3, and the serine-alanine conversion was confirmed by sequencing.
as §1, §2

[5] = tested on: primary limb mesenchymal cultures; experiment: Cartilage nodule formation in primary limb mesenchymal cultures (alcian blue staining); assay type: cell-based, mouse
Experimental: as §1, §2

[6] = tested on: IL-2 gene expression; details: Koyama et al., 2000; read-out: IC50 for inhibition of IL-2 gene expression; cited from earlier work
[7] = 10 μM, versus untreated control cultures
[8] = day 4 alcian blue-stained cultures

SMILES: Cc1ccc(C2=CC(C)(C)Oc3c(Br)cc(C(=O)Nc4ccc(C(=O)O)c(F)c4)cc32)cc1 [AGN194301, 2-Fluoro-4-[(1-(8-bromo-2,2-dimethyl-4-(4-methylphenyl)-2-H-chromen-6-yl)-methanoyl)-amino]-benzoic acid]
concentrations inducing significant changes in activity of the RARE reporter (Bonferroni post-tests) ([1]; FIG. 1B, P at least <0.05): ≥ 100 nM
Sox9 mRNA expression (in words) [2]: noticeable increase in Sox9 mRNA
cartilage nodule formation (in words) [3]: substantial increase in the number of cartilage nodules
concentrations giving significant differences in Sox9 reporter activity (Bonferroni post-tests) ([4]; FIG. 1A, P at least <0.05): ≥ 100 nM
greatest induction of Sox9 reporter activity ([4]; at 1 μM, primary limb mesenchymal cells): about 280%
effect on Sox9 reporter activity (in words) ([4]; concentration series): concentration-dependent increase in reporter activity

SMILES: Oc1ccc(-c2nc(-c3ccncc3)c(-c3ccc(F)cc3)[nH]2)cc1 [SB202190]
effect on Sox9 reporter activity (in words) ([4]; 5 or 10 μM): decrease in Sox9 reporter activity compared to untreated controls
effect on the antagonist-induced increase in Sox9 reporter activity (in words) [4]: attenuated the chondrogenic response to AGN194301
cartilage nodule formation (in words) [5, 7]: almost no cartilage nodules form

SMILES: Nc1ncnc2c1nc(Sc1ccc(Cl)cc1)n2[C@@H]1O[C@@H]2COP(=O)(O)O[C@H]2[C@H]1O [pCPT-cAMP, 8-(4-chlorophenylthio)-cAMP]
increase in Sox9 reporter activity ([4]; 500 μM, absence of exogenous Sox9): about 4.5 fold
further increase in Sox9 reporter activity ([4]; co-transfection with wt Sox9 or Sox9-181A): < 1.5 fold

Further lines, with some results ahead:

maximal induction of Sox9 reporter activity ([4]; at 50 nM, primary limb mesenchymal cells): ~530%
concentration inducing Sox9 reporter activity greater than the maximal response elicited by 301 ([4]; concentrations as low as): ≥ 10 nM
SMILES: CCc1ccc(C2=CC(C)(C)Sc3ccc(C#Cc4ccc(C(=O)O)cc4)cc32)cc1 [AGN194310]
effect on RARE reporter activity (in words) [1]: attenuated by 310 more effectively than by 301
concentration at which increase in nodule formation can be observed ([5]; treatment for 4 days, alcian blue): 10 nM

effect on Sox9 reporter activity (in words) ([4]; 10 μM, absence of exogenous Sox9): repressed reporter activity
effect on Sox9 reporter activity (in words) ([4]; presence of co-transfected Sox9): slightly decreased reporter activity
SMILES: O=S(=O)(NCCNC/C=C/c1ccc(Br)cc1)c1cccc2cnccc12 [H89]
effect on the antagonist-induced increase in Sox9 reporter activity (in words) [4]: reduced Sox9 reporter activity both in the presence or absence of AGN194301 or dnRARα
cartilage nodule formation (in words) [5, 7]: fewer nodules are detected compared to untreated cultures

effect on the antagonist-induced increase in Sox9 reporter activity (in words) [4]: attenuated the 310-induced increase
SMILES: CC(/C=C/C(=O)NO)=C\[C@@H](C)C(=O)c1ccc(N(C)C)cc1 [TSA, Trichostatin A]
effect on RARE reporter activity (in words) [1]: enhanced activity of the pW1-αRARE3tkLuc reporter in a concentration-dependent manner
IC50 [6]: 0.073 µM
effect on Sox9 reporter activity (in words) ([4]; concentration series): dose-dependent decrease in Sox9 reporter activity
cartilage nodule formation (in words) [5, 8]: decrease in the number of cartilage nodules

Sox9 reporter activity reduced to (% of control) ([4]; at 5 nM): 53%
effect on Sox9 reporter activity (in words) ([4]; concentration series): attenuated reporter activity
SMILES: CC1=C(/C=C/C(C)=C/C=C/C(C)=C/C(=O)O)C(C)(C)CCC1 [at-RA, All-trans RA]
effect on RARE reporter activity (in words) [1]: activated the RARβ reporter to a greater extent than about 836
cartilage nodule formation (in words) [5, 8]: more potent inhibitor of cartilage nodule formation than 836
